Test results reported in ChEMBL document CHEMBL1127439, “Structure-activity relationship studies of central nervous system agents. 13. 4-[3-(Benzotriazol-1-yl)propyl]-1-(2-methoxyphenyl)piperazine, a new putative 5-HT1A receptor antagonist, and its analogs” (J Med Chem, 1994).

Tests used:
Mus musculus [1] = test: Effect on 8-OH-DPAT-induced hypothermia in mice (5 mg/kg) at intraperitoneal dosage of 1 mg/kg of compound after 60 mins; assay type: functional
Mus musculus [2] = test: Effect on 8-OH-DPAT-induced hypothermia in mice (5 mg/kg) at intraperitoneal dosage of 8 mg/kg of compound after 15 mins; assay type: functional
Mus musculus [3] = test: Effect on body temperature in mice at intraperitoneal dosage of 2 mg/kg, (compound administered 30 min before the test) after 30 min; assay type: functional
Mus musculus [4] = test: Effect on 8-OH-DPAT-induced hypothermia in mice (5 mg/kg) at intraperitoneal dosage of 4 mg/kg of compound after 60 mins; assay type: functional
Mus musculus [5] = test: Effect on body temperature in mice at intraperitoneal dosage of 4 mg/kg, (compound administered 30 min before the test) after 75 min; assay type: functional
Mus musculus [6] = test: Effect on body temperature in mice at intraperitoneal dosage of 2 mg/kg, (compound administered 30 min before the test) after 90 min; assay type: functional
Mus musculus [7] = test: Effect on body temperature in mice at intraperitoneal dosage of 4 mg/kg, (compound administered 30 min before the test) after 30 min; assay type: functional
Mus musculus [8] = test: Effect on 8-OH-DPAT-induced hypothermia in mice (5 mg/kg) at intraperitoneal dosage of 1 mg/kg of compound after 45 mins; assay type: functional
Rattus norvegicus [9] = test: Tested for the effect on 8-OH-DPAT-induced behavior in reserpine pretreated rat against forepaw treading at dosage of 4 mg/kg; assay type: functional
Rattus norvegicus [10] = test: Tested for the effect on 8-OH-DPAT-induced lower lip retraction (LLR) in rat at dosage of 4 mg/kg; assay type: functional
Rattus norvegicus [11] = test: Tested for the induction of lower lip retraction (LLR) by the investigated compounds in rat at dosage of 2 mg/kg; assay type: functional
Mus musculus [12] = test: Effect on 8-OH-DPAT-induced hypothermia in mice (5 mg/kg) at intraperitoneal dosage of 2 mg/kg of compound after 15 mins; assay type: functional
Mus musculus [13] = test: Effect on 8-OH-DPAT-induced hypothermia in mice (5 mg/kg) at intraperitoneal dosage of 1 mg/kg of compound after 15 mins; assay type: functional
Mus musculus [14] = test: Effect on body temperature in mice at intraperitoneal dosage of 1 mg/kg, (compound administered 30 min before the test) after 30 min; assay type: functional
Rattus norvegicus [15] = test: Tested for the induction of lower lip retraction (LLR) by the investigated compounds in rat at dosage of 16 mg/kg; assay type: functional
Rattus norvegicus [16] = test: Tested for the induction of lower lip retraction (LLR) by the investigated compounds in rat at dosage of 4 mg/kg; assay type: functional
Mus musculus [17] = test: Effect on 8-OH-DPAT-induced hypothermia in mice (5 mg/kg) at intraperitoneal dosage of 8 mg/kg of compound after 30 mins; assay type: functional
Mus musculus [18] = test: Effect on body temperature in mice at intraperitoneal dosage of 2 mg/kg, (compound administered 30 min before the test) after 60 min; assay type: functional
Mus musculus [19] = test: Effect on 8-OH-DPAT-induced hypothermia in mice (5 mg/kg) at intraperitoneal dosage of 2 mg/kg of compound after 45 mins; assay type: functional
Mus musculus [20] = test: Effect on body temperature in mice at intraperitoneal dosage of 1 mg/kg, (compound administered 30 min before the test) after 60 min; assay type: functional
Rattus norvegicus [21] = test: Tested for the effect on 8-OH-DPAT-induced behavior in reserpine pretreated rat against flat body posture at dosage of 2 mg/kg; assay type: functional
Rattus norvegicus [22] = test: Tested for the effect on 8-OH-DPAT-induced behavior in reserpine pretreated rat against flat body posture at dosage of 8 mg/kg; assay type: functional
Rattus norvegicus [23] = test: Tested for the induction of lower lip retraction (LLR) by the investigated compounds in rat at dosage of 8 mg/kg; assay type: functional
Rattus norvegicus [24] = test: Tested for the effect on 8-OH-DPAT-induced behavior in reserpine pretreated rat against flat body posture at dosage of 4 mg/kg; assay type: functional
Rattus norvegicus [25] = test: Tested for the effect on 8-OH-DPAT-induced behavior in reserpine pretreated rat against forepaw treading at dosage of 16 mg/kg; assay type: functional
Mus musculus [26] = test: Effect on 8-OH-DPAT-induced hypothermia in mice (5 mg/kg) at intraperitoneal dosage of 4 mg/kg of compound after 30 mins; assay type: functional
Mus musculus [27] = test: Effect on body temperature in mice at intraperitoneal dosage of 2 mg/kg, (compound administered 30 min before the test) after 75 min; assay type: functional
Mus musculus [28] = test: Effect on body temperature in mice at intraperitoneal dosage of 2 mg/kg, (compound administered 30 min before the test) after 45 min; assay type: functional
Rattus norvegicus [29] = test: Tested for the effect on 8-OH-DPAT-induced lower lip retraction (LLR) in rat at dosage of 8 mg/kg; assay type: functional
Mus musculus [30] = test: Effect on 8-OH-DPAT-induced hypothermia in mice (5 mg/kg) at intraperitoneal dosage of 1 mg/kg of compound after 30 mins; assay type: functional
Rattus norvegicus [31] = test: Tested for the effect on 8-OH-DPAT-induced behavior in reserpine pretreated rat against forepaw treading at dosage of 2 mg/kg; assay type: functional
Mus musculus [32] = test: Effect on body temperature in mice at intraperitoneal dosage of 8 mg/kg, (compound administered 30 min before the test) after 30 min; assay type: functional
Mus musculus [33] = test: Effect on 8-OH-DPAT-induced hypothermia in mice (5 mg/kg) at intraperitoneal dosage of 8 mg/kg of compound after 60 mins; assay type: functional
Mus musculus [34] = test: Effect on body temperature in mice at intraperitoneal dosage of 4 mg/kg, (compound administered 30 min before the test) after 45 min; assay type: functional
Mus musculus [35] = test: Effect on body temperature in mice at intraperitoneal dosage of 8 mg/kg, (compound administered 30 min before the test) after 45 min; assay type: functional
Rattus norvegicus [36] = test: Tested for the effect on 8-OH-DPAT-induced lower lip retraction (LLR) in rat at dosage of 2 mg/kg; assay type: functional
Mus musculus [37] = test: Effect on body temperature in mice at intraperitoneal dosage of 4 mg/kg, (compound administered 30 min before the test) after 60 min; assay type: functional
Rattus norvegicus [38] = test: Tested for the effect on 8-OH-DPAT-induced behavior in reserpine pretreated rat against flat body posture at dosage of 16 mg/kg; assay type: functional
Mus musculus [39] = test: Effect on 8-OH-DPAT-induced hypothermia in mice (5 mg/kg) at intraperitoneal dosage of 2 mg/kg of compound after 30 mins; assay type: functional
Mus musculus [40] = test: Effect on body temperature in mice at intraperitoneal dosage of 1 mg/kg, (compound administered 30 min before the test) after 90 min; assay type: functional
Rattus norvegicus [41] = test: Tested for the effect on 8-OH-DPAT-induced lower lip retraction (LLR) in rat at dosage of 16 mg/kg; assay type: functional
[42] = biological target: Serotonin 2 (5-HT2) receptor (Rattus norvegicus, UniProt P30994+P08909+P14842); test: Tested in vitro for receptor binding affinity against 5-hydroxytryptamine 2 receptor using radioligand [3H]ketanserin; assay type: protein assay
Mus musculus [43] = test: Effect on body temperature in mice at intraperitoneal dosage of 4 mg/kg, (compound administered 30 min before the test) after 90 min; assay type: functional
Mus musculus [44] = test: Effect on 8-OH-DPAT-induced hypothermia in mice (5 mg/kg) at intraperitoneal dosage of 4 mg/kg of compound after 15 mins; assay type: functional
Mus musculus [45] = test: Effect on body temperature in mice at intraperitoneal dosage of 8 mg/kg, (compound administered 30 min before the test) after 60 min; assay type: functional

COc1ccccc1N1CCN(CCCn2nnc3ccccc32)CC1
Delta t (Mus musculus [1]): 0.3 °C | Delta t (Mus musculus [2]): 0.3 °C | Delta t (Mus musculus [3]): 0.3 °C | Delta t (Mus musculus [4]): 0.1 °C | Delta t (Mus musculus [5]): 0 °C | Delta t (Mus musculus [6]): 0.1 °C | Delta t (Mus musculus [7]): 0.4 °C | Delta t (Mus musculus [8]): 0.6 °C | Behavioral score (Rattus norvegicus [9]): 5.8 | LLR score (Rattus norvegicus [10]): 1.1 | LLR score (Rattus norvegicus [11]): 0.1 | Delta t (Mus musculus [12]): 0.4 °C | Delta t (Mus musculus [13]): 1.5 °C | Delta t (Mus musculus [14]): 0 °C | LLR score (Rattus norvegicus [15]): 0.6 | LLR score (Rattus norvegicus [16]): 0 | Delta t (Mus musculus [17]): 0.4 °C | Delta t (Mus musculus [18]): 0.2 °C | Delta t (Mus musculus [19]): 0.1 °C | Delta t (Mus musculus [20]): 0.1 °C | Behavioral score (Rattus norvegicus [21]): 14.8 | Behavioral score (Rattus norvegicus [22]): 8 | LLR score (Rattus norvegicus [23]): 0.1 | Behavioral score (Rattus norvegicus [24]): 11.5 | Behavioral score (Rattus norvegicus [25]): 2.6 | Delta t (Mus musculus [26]): 0.1 °C | Delta t (Mus musculus [27]): 0.2 °C | Delta t (Mus musculus [28]): 0.1 °C | LLR score (Rattus norvegicus [29]): 0.7 | Delta t (Mus musculus [30]): 1.1 °C | Behavioral score (Rattus norvegicus [31]): 13.4 | Delta t (Mus musculus [32]): 0.4 °C | Delta t (Mus musculus [33]): 0.6 °C | Delta t (Mus musculus [34]): 0.2 °C | Delta t (Mus musculus [35]): 0.2 °C | LLR score (Rattus norvegicus [36]): 2.3 | Delta t (Mus musculus [37]): 0.1 °C | Behavioral score (Rattus norvegicus [38]): 6.1 | Delta t (Mus musculus [39]): 0.2 °C | Delta t (Mus musculus [40]): 0.1 °C | LLR score (Rattus norvegicus [41]): 0.9 | Ki [42]: 1040 nM | Delta t (Mus musculus [43]): 0.2 °C | Delta t (Mus musculus [44]): 0.3 °C | Delta t (Mus musculus [45]): 0.1 °C
